The experiment concerns Mycobacterium tuberculosis. Kind of experiment: Antitubercular activity against multidrug resistant Mycobacterium tuberculosis. The experiment is classed as functional.

In brackets after ≈: the same amount, converted by molar mass.

Usually MIC stands for the least concentration at which growth counts as inhibited. `O=C(N/N=C/c1ccc([N+](=O)[O-])cc1)[C@H]1CSC(c2ccc(F)cc2)N1` (stereo partly specified) returned an MIC of 1.33 µM (≈ 0.498 µg/mL).

The values above are taken from ChEMBL document CHEMBL4406816, “Role of sulphur-heterocycles in medicinal chemistry: An update” (Eur J Med Chem, 2019).
